# Experiments:
# [1] = tested on: Candida albicans Strain 17; test: Anti-proliferation assay, Candida albicans Strain 17; type: cell-based; conditions: STRAIN17, Amphotericin B 0.00 μM (r16), read-out: Percent inhibition of proliferation
# From the text: (§1) Using the method described below, we tested the ability of the combination of various concentrations of amphotericin B plus disulfiram to inhibit the proliferation of numerous yeast strains using particle density as an indicator of cell number.
# (§2) Two clinical Candida albicans isolates (one triazole-resistant strain and one triazole-susceptible strain) were obtained from the culture collection if the Seattle Biomedical Research Institute (Seattle, Wash.). Additional fungal strains were obtained from the American Type Culture Collection triazole-resistant C. albicans: ATCC MYA-573, C. glabrata: ATCC 90030. Yeast cultures were stored in 15% glycerol at −70° C. Isolates were cultured in growth medium (RPMI 1640; 2% glucose without NaHCO3 and phenol red, buffered with 0.165 M MOPS to pH 7.0) at 35° C. for 24 hours prior to in vitro susceptibility testing. All media reagents were purchased from Sigma Chemical Co. (St. Louis, Mo.).
# (§3) The following compounds were used: disulfiram and amphotericin B (both from Sigma Chemical Co.). In the anti-proliferation experiments, Gentian Violet was used as a positive control for antifungal activity. Stock solutions of each compound were prepared in DMSO and stored at −20° C. Prior to use, stock solutions were diluted in RPMI to produce 10× solutions. 10× disulfiram (0-7 μL) and 10× amphotericin B (0-7 μL) were then plated in 40 μL of in 384 well microtiter plates to form a matrix of compound combinations.
# (§4) All antifungal susceptibility testing was performed according to document M-27A as published by the National Committee for Clinical Laboratory Standards (Reference Method for Broth Dilution Antifungal Susceptibility Testing of Yeasts (1997), Wayne, Pa.). Briefly, yeast inocula from overnight cultures were standardized to a turbidity equivalent to a 0.5 McFarland Standard using a spectrophotometer at 530 nm, giving rise to a stock solution of 1×10^6 cells/mL. Each yeast suspension was further diluted in growth medium to yield a final inoculum concentration of approximately 4×10^3 cells/mL. Forty microlitres of the inoculum were used to inoculate each well, resulting in a final concentration of 2×10^3 cells/mL. Drug-free controls were included on each plate. Plates were incubated for 16 hours at 32° C. The amount of cell growth was determined by particle density as read on a Nephelometer (BMG Lab Technologies; Durham, N.C.).
# Candida glabrata = test: Anti-proliferation assay, Candida glabrata; type: cell-based; conditions: Nakaseomyces glabratus, Amphotericin B 0.00 μM (r15), read-out: Percent inhibition of proliferation
# From the text: as §1, §2, §3, §4
# Aspergillus fumigatus = test: Anti-proliferation assay, Aspergillus fumigatus; type: cell-based; conditions: Amphotericin B 0.00 μM, read-out: Percent inhibition of proliferation
# Procedure: as §1
# The Aspergillus fumigatus strain was obtained from the American Type Culture Collection (ATCC 46645). Aspergillus cultures were stored in 15% glycerol at −70° C. Isolates were cultured on Sabouraud glucose (SAB) agar plates at 37° C. for 5 to 7 days. Condidia were collected by addung 5 to 10 mL of sterile saline containing 0.05% Tween 20 to the plates and loosening condidia with a swab. Using a pipette, condidia were collected suspension and placed in a sterile bottle. This was repeated for all plates. After harvesting the suspension was filtered through gauze into a clean, sterile bottle. The turbidity of the supernatants was measured spectrophometrically at 530 nm and the transmission adjusted to 80-82% with PBS (with 0.05% Tween 20) to yield an initial suspension of 1×10^6 CFU/mL.
# as §3, §4
# [2] = tested on: Candida albicans Strain 1; test: Anti-proliferation assay, Candida albicans Strain 1; type: cell-based; conditions: STRAIN1, Amphotericin B 0.00 μM (r16), read-out: Percent inhibition of proliferation
# From the text: as §1, §2, §3, §4
# [3] = cited from earlier work
# Candida albicans MYA 573 = test: Anti-proliferation assay, Candida albicans MYA 573; type: cell-based; conditions: MYA573, Amphotericin B 0.00 μM (r16), read-out: Percent inhibition of proliferation
# From the text: as §1, §2, §3, §4
compound,measurement,setting,value
"CCN(CC)C(=S)SSC(=S)N(CC)CC [Disulfiram, bis(diethylthiocarbamoyl) disulfide]",inhibition at 0.01 µM,[1]; Disulfiram 0.01 μM,-3.64%
same,inhibition at 0.02 µM,[1]; Disulfiram 0.02 μM,-0.03%
same,inhibition at 0.04 µM,[1]; Disulfiram 0.04 μM,-0.15%
same,inhibition at 0.07 µM,[1]; Disulfiram 0.07 μM,2.27%
same,inhibition at 0.14 µM,[1]; Disulfiram 0.14 μM,2.66%
same,inhibition at 0.28 µM,[1]; Disulfiram 0.28 μM,22.9%
same,inhibition at 0.56 µM,[1]; Disulfiram 0.56 μM,30.5%
same,inhibition at 1.12 µM,[1]; Disulfiram 1.12 μM,53.4%
same,inhibition at 0.01 µM,Candida glabrata; Disulfiram 0.01 μM,-10.4%
same,inhibition at 0.02 µM,Candida glabrata; Disulfiram 0.02 μM,-1.67%
same,inhibition at 0.04 µM,Candida glabrata; Disulfiram 0.04 μM,1.52%
same,inhibition at 0.07 µM,Candida glabrata; Disulfiram 0.07 μM,1.92%
same,inhibition at 0.14 µM,Candida glabrata; Disulfiram 0.14 μM,2.12%
same,inhibition at 0.28 µM,Candida glabrata; Disulfiram 0.28 μM,19.6%
same,inhibition at 0.56 µM,Candida glabrata; Disulfiram 0.56 μM,61.3%
same,inhibition at 1.12 µM,Candida glabrata; Disulfiram 1.12 μM,88.7%
same,inhibition at 0.04 µM,Aspergillus fumigatus; Disulfiram 0.04 μM,0.66%
same,inhibition at 0.08 µM,Aspergillus fumigatus; Disulfiram 0.08 μM,-2.93%
same,inhibition at 0.16 µM,Aspergillus fumigatus; Disulfiram 0.16 μM,-2.21%
same,inhibition at 0.31 µM,Aspergillus fumigatus; Disulfiram 0.31 μM,-13.1%
same,inhibition at 0.63 µM,Aspergillus fumigatus; Disulfiram 0.63 μM,-0.75%
same,inhibition at 1.25 µM,Aspergillus fumigatus; Disulfiram 1.25 μM,6.07%
same,inhibition at […],Aspergillus fumigatus; Disulfiram 2.50 μM,14.9%
same,inhibition at 5 µM,Aspergillus fumigatus; Disulfiram 5.00 μM,31.7%
same,inhibition at 10 µM,Aspergillus fumigatus; Disulfiram 10.00 μM,37.2%
same,inhibition at 0.01 µM,[2]; Disulfiram 0.01 μM,5.3%
same,inhibition at 0.02 µM,[2]; Disulfiram 0.02 μM,9.08%
same,inhibition at 0.04 µM,[2]; Disulfiram 0.04 μM,10.1%
same,inhibition at 0.07 µM,[2]; Disulfiram 0.07 μM,11.7%
same,inhibition at 0.14 µM,[2]; Disulfiram 0.14 μM,18.2%
same,inhibition at 0.28 µM,[2]; Disulfiram 0.28 μM,26.9%
same,inhibition at 0.56 µM,[2]; Disulfiram 0.56 μM,54.5%
same,inhibition at 1.12 µM,[2]; Disulfiram 1.12 μM,89.6%
same,soluble in alcohol,[3]; alcohol,about 3.8 mg/100 mL
same,soluble in water,[3]; water,about 20 mg/100 mL
same,inhibition at 0.01 µM,Candida albicans MYA 573; Disulfiram 0.01 μM,-5.62%
same,inhibition at 0.02 µM,Candida albicans MYA 573; Disulfiram 0.02 μM,1.7%
same,inhibition at 0.04 µM,Candida albicans MYA 573; Disulfiram 0.04 μM,10.3%
same,inhibition at 0.07 µM,Candida albicans MYA 573; Disulfiram 0.07 μM,25.2%
same,inhibition at 0.14 µM,Candida albicans MYA 573; Disulfiram 0.14 μM,39.3%
same,inhibition at 0.28 µM,Candida albicans MYA 573; Disulfiram 0.28 μM,55.6%
same,inhibition at 0.56 µM,Candida albicans MYA 573; Disulfiram 0.56 μM,78.3%
same,inhibition at 1.12 µM,Candida albicans MYA 573; Disulfiram 1.12 μM,95%

# — patent US20040157837A1, “Combinations for the treatment of fungal infections” (priority 2002, published 2004)
